Several values for one entry are separate records, joined by “and”; a condition that tells them apart may be missing. Equal values may be shown once.
Experiments:
[1] = system: HaCaT normal human keratinocytes; test: MTT cell viability assay, HaCaT; assay type: cell-based
Protocol: (§1) The MTT assay was first described as a sensitive, quantitative, and reliable colorimetric assay to measure the viability, proliferation, and activation of cells. Cell viability was assessed at 24 and 72 h of treatment to evaluate cytotoxicity and the effect on cell proliferation of the decavanadate compound, respectively. The concentrations of the decavanadate compound have been determined by weighing the compound in its crystal form and then solubilizing it in distilled water.
(§2) All cell lines were seeded in 96-well plates (Nunc, Roskilde, Denmark) at a density of 10^4 cells per well and were incubated overnight, before treatment with different concentrations of the decavanadate compound. After 24 or 72 h of treatment, fresh media solution containing MTT at 0.5 mg/mL was added to cells and incubated for 3 h at 37°C. The formed formazan crystals were then dissolved in DMSO, and the absorbance was measured at 560 nm using a BioTek EON Microplate Spectrophotometer (Fisher Scientific). Cell viability was expressed as a percentage of the viable cell number of the untreated cells (control [CTR]).
(§3) The concentration of the decavanadate compound required for 50% growth inhibition (IC50 value) was estimated as resulting in a 50% decrease in absorbance, compared to the CTR.

[2] = system: Swiss albino mice; test: In vivo toxicity/safety assessment, 12 days i.p.; conditions: for ALT / AST / Creatinine: plasma
Protocol: In order to investigate the safety of the Mg2Na2V10O28·20H2O compound, three doses of 20, 50, and 100 μg were tested on male Swiss albino mice of ∼20 g weight each. Mice were randomly allocated in four groups of eight mice each. These doses correspond to 1, 2.5, and 5 mg/kg, respectively. A stock solution of 7.5 mg/mL (5.5 mM) was first prepared in PBS (1x). Dilutions were done to obtain 3 solutions of 0.2 mg/mL (146 μM), 0.5 mg/mL (366 μM), and 1 mg/mL (732 μM) in PBS, from which a volume of 100 μL was injected to each mouse, corresponding to the three doses. These doses were chosen based on our previous study. Mice of the CTR group received 100 μL of PBS. Decavanadate compound or vehicle was administered daily by intraperitoneal injection for 12 consecutive days in the morning between 09:00 and 10:00 a.m.
Animals were observed individually for general behavior, toxicity symptoms, and mortality during the first 30 min and then daily during the experiment. The body weights were measured at the beginning and at the end of the […]. On Day 12, blood samples were drawn from the facial vein of each mouse, using capillary tubes, containing heparin (as an anticoagulant component), for biochemical parameters studies. Mice were then sacrificed by cervical dislocation, and their organs (liver and kidney) were excised. The organs were then fixed in 10% buffered formalin for histopathological examination.
Plasma samples were obtained by blood centrifugation at 3000 rpm for 10 min and kept at −20°C. The activities of hepatic enzymes, such as aspartate aminotransferase (AST) and alanine aminotransferase (ALT), and creatinine levels were assessed with commercially available diagnostic kits supplied by Biomaghreb Laboratories (Tunisia). Enzymatic activity was expressed in international units per liter (IU/L). Additionally, we focused on measuring the activity of enzymes involved in hepatic metabolism to evaluate the effect of decavanadate accumulation on liver function. Creatinine level was expressed in mg/L.
Liver and kidney organs in formalin were washed and dehydrated using alcohol. Paraffin-embedded sections were cut at 5-6 μm thickness and stained with hematoxylin and eosin for microscopic examination at 20x and 40x magnification.

[3] = system: IGR39 human melanoma cells; test: MTT cell viability assay, IGR39; assay type: cell-based
Protocol: as §1, §2, §3

[4] = system: IGR37 human melanoma cells; test: MTT cell viability assay, IGR37; assay type: cell-based
Protocol: as §1, §2, §3

[5] = system: DMBA/croton oil-induced skin lesions in Swiss albino mice; test: Chemical-induced (DMBA/croton oil) lesion model in mice; assay type: in vivo; conditions: cotreatment, 2.5 mg/kg s.c.
Protocol: Two days before the beginning of the experiment, we selected 32 male Swiss albino mice and clipped the hair on their backs in a 2 × 2 cm^2 area. The design of the experiment was performed as reported by Vähätupa et al. (Figure S1). The animals were randomly divided into […] (8 animals in each group): • i. CTR− group: represented the negative CTR group, where mice received 100 μL of acetone only. • ii. CTR+ group: served as the positive CTR group, where mice were treated […] with a single dose of DMBA (50 μg/100 μL acetone) on the shaven area on their backs. Seven days later, croton oil (50 μL/100 μL acetone) was applied twice a week until the end of the experiment (6 weeks). • iii. CT group (cotreatment group): animals received a single dose of DMBA (50 μg/100 μL acetone) on the shaven area on their backs. Seven days later, croton oil (50 μL/100 μL acetone) was applied twice. Then, mice received croton oil and 2.5 mg/kg of the decavanadate compound (dissolved in PBS) by subcutaneous injection on their backs. The Mg2Na2V10O28·20H2O compound was given to animals 15 min after each croton oil application from the third week until the sixth week (the end of the protocol).

[6] = system: B16-F10 murine melanoma cells; test: MTT cell viability assay, B16-F10; assay type: cell-based
Protocol: as §1, §2, §3

[7] = Stability of the stock solution (activity retained); assay type: physicochemical; conditions: 1 mg/mL stock kept at +4°C, experiments repeated after 2 months
Protocol: Four cutaneous melanoma cell lines IGR39, IGR37, SKMEL28, and B16-F10 were treated with increasing concentrations of the decavanadate compound (Figure 3). A stock solution was prepared at a concentration of 1 mg/mL and kept at a temperature of +4°C. The dilutions were made just before the treatment. Figures 3(a) and 3(b) show the dose–response effect of Mg2Na2V10O28·20H2O compound on the viability of different melanoma cell lines, after 24 and 72 h of treatments, respectively.

dimagnesium disodium decavanadate icosahydrate [Mg2Na2V10O28·20H2O]
Effect on viability of normal keratinocytes ([1]; 24 h treatment): little effect
IC50 ([1]; 24 h treatment, MTT): > 70.8 µM
IC50 ([1]; 72 h treatment, MTT): 8.9 µM
IC50, cell viability ([1]; 72 h treatment, MTT): 12.7 µg/mL
Liver histological analysis ([2]; 50 μg (2.5 mg/kg), 12 days): necrosis
Liver histological analysis ([2]; 100 μg (5 mg/kg), 12 days): lymphohistiocytic inflammatory infiltrate in the portal tract
Biochemical parameters (AST, ALT, creatinine) versus control ([2]; 1 mg/kg i.p. daily, 12 days): comparable to the negative CTR
ALT ([2]; 2.5 mg/kg i.p. daily, 12 days): 48.75 ± 2.96 IU/L
AST ([2]; 2.5 mg/kg i.p. daily, 12 days): 32.83 ± 1.09 IU/L
Creatinine ([2]; 2.5 mg/kg i.p. daily, 12 days): 2.45 mg/L and 2.45 ± 0.28^∗ mg/L
Kidney histology ([2]; 2.5 mg/kg, 12 days): no difference compared to those of the CTR group
ALT ([2]; 5 mg/kg i.p. daily, 12 days): 81.67 ± 5.12^∗∗∗ IU/L
AST ([2]; 5 mg/kg i.p. daily, 12 days): 45.63 ± 1.21^∗∗ IU/L
Creatinine ([2]; 5 mg/kg i.p. daily, 12 days): 2.80 ± 0.312^∗∗ mg/L
Kidney histology ([2]; 5 mg/kg, 12 days): mild interstitial lymphocytic inflammatory infiltrate
Mortality and signs of toxicity (weight loss, behavioral abnormalities) ([2]; 1, 2.5 or 5 mg/kg, i.p. daily for 12 days, Swiss albino mice): No mortality or signs of toxicity
IC50 ([3]; IGR39, 24 h treatment): 18 µM
IC50 ([3]; IGR39, 72 h treatment): 5.2 µM
IC50 ([4]; IGR37, 24 h treatment): 12.7 µM
IC50 ([4]; IGR37, 72 h treatment): 1.4 µM
IC50, cell viability ([4]; IGR37, 72 h treatment): 2 µg/mL
Skin histology (dermal inflammatory infiltrate) [5]: attenuation of this inflammatory state
Mortality and behavior in DMBA/croton oil-treated mice ([5]; 6-week protocol): neither mortality nor changes in the behavior
IC50 ([6]; B16-F10, 24 h treatment): 7.3 µM
IC50 ([6]; B16-F10, 72 h treatment): 2.8 µM
Stability of stock solution [7]: the compound is stable

From paper PMC11742080, “Decavanadate Compound Displays In Vitro and In Vivo Antitumor Effect on Melanoma Models” (Bioinorganic Chemistry and Applications, 2025)
